Results as given in patent US7560436B2, “Methods of treating gastrointestinal inflammation” (The Regents of the University of California, priority 2005, dated 2009).

How the values were obtained:
[1] = test system: bone marrow-derived myeloid dendritic cells (MDC) from RAG−/− mice; assay: DNA-PK inhibitor on CpG-ODN-induced cytokine production in MDC; assay type: cell-based, mouse; conditions: various concentrations of NU7026, with or without CpG-ODN
Protocol: Since deletion of the kinase domain of DNA-PKcs is responsible for the SCID phenotype, the role of DNA-PK in TLR9-mediated type-I IFN induction was investigated. To do so, bone marrow-derived myeloid dendritic cells (MDC) from RAG^−/− mice were incubated with various concentrations of NU7026, a DNA-PK inhibitor (Calbiochem, San Diego, Calif.), with or without CpG-ODN. […] In contrast, the activation of NF-κB, MAPK, IRF-3 and IRF-7 were similar in these cells (FIG. 2B), indicating a specific signaling blockade downstream to TLR9 in SCID but not in RAG^−/− BM-MDC.

DSS-induced colitis = DSS-induced colitis in mice (disease activity index, colonic MPO activity, histological score, mortality); assay type: in vivo, mouse; conditions: for DAI (disease activity index) / HS (histological score) / MPO (U/g): 1.5% DSS
Description: In a previous study the concentration of DSS was identified that was required to induce a similar severity of colitis in the different mouse strains used in this study (Rachmilewitz et al. (2004) Gastroenterology 126:520-528). Mice on the B6 background were given 1.5% (w/v) DSS, mice on the 129/SvEv background were given 4% DSS and mice on the Balb/c background were given 3.5% DSS dissolved in sterile, distilled water ad libitum for 7 days (Rachmilewitz et al. (2004) supra). […] The disease activity index (DAI; the combined score of weight loss and bleeding) was determined as described (Rachmilewitz et al. (2002) Gastroenterology 122:1428-144110; and Rachmilewitz et al. (2004) supra). Briefly, scores are defined as follows: Loss in body weight: 0=no loss; 1=5% to 10%; 2=10% to 15%; 3=15% to 20%; 4=over 20%. Hemoccult: 0=no blood; 2=positive; 4=gross blood.
The colon tissues were longitudinally opened and a 50 mg portion was homogenized in hexadecyltrimethyl-ammonium bromide (0.5%) in 50 mmol/L phosphate buffer, pH6.0. The homogenate was sonicated for 10 seconds, freeze-thawed 3 times, and centrifuged for 15 minutes. An aliquot of the supernatant was taken for determination of enzyme activity as described (Rachmilewitz et al. (2002) supra; and Rachmilewitz et al. (2004) supra).
After 7 days of DSS administration, mice were killed and the entire colon was excised, longitudinally opened, rolled onto a wooden stick, fixed with Bouin's Solution (Sigma, St. Louis, Mo.), and embedded in paraffin. Tissue sections (5 μm) were prepared, deparaffinized, and stained with hematoxylin and eosin. Histological scoring was performed in a blinded fashion. Colonic epithelial damage was scored as follows: 0=normal; 1=hyper-proliferation, irregular crypts, and goblet cell loss; 2=mild to moderate crypt loss (10-50%); 3=severe crypt loss (50-90%); 4=complete crypt loss, surface epithelium intact; 5=small to medium sized ulcer (<10 crypt widths); 6=large ulcer (≧10 crypt widths). Infiltration with inflammatory cells was scored separately for mucosa (0=normal, 1=mild, 2=modest, 3=severe), submucosa (0=normal, 1=mild to modest, 2=severe), and muscle/serosa (0=normal, 1=moderate to severe). Scores for epithelial damage and inflammatory cell infiltration were added, resulting in a total scoring range of 0-12.

[2] = RAG1−/− mice (B6), ODN 10 μg/animal s.c. once 2 h prior, day 7, mean±SEM
[3] = SCID mice (B6), ODN 10 μg/animal s.c. once 2 h prior, day 7, mean±SEM
[4] = Table 6: SCID mice (B6), 1000 U recombinant mIFN-β i.p. prior to and on days 2, 4, 6, day 7, mean±SEM

What does the source list for `O=c1cc(N2CCOCC2)oc2c1ccc1ccccc12` [NU7026]?
IFN-α/β production induced by CpG-ODN [1]: selectively inhibited IFN-α/β; IL-12 (p40) production induced by CpG-ODN [1]: without affecting IL-12 (p40) production

For “CpG-ODN-2: phosphodiester and phosphothioate-modified class A CpG-ODN, 5′-Ggtgcatcgatgca GGGGGg-3′; SEQ ID NO:05 (GGTGCATCGATGCAGGGGGG; DNA, linkages s1 o13 s5 (s phosphorothioate, o phosphodiester), methylation of C not given here)”, which “DAI (disease activity index)” value (DSS-induced colitis; [2]) is on record?
Its value is 1.9 ± 0.7^A.

And the “HS (histological score)” value (DSS-induced colitis; [2])?
Its value is 5.0 ± 0.8^A.

And the “MPO (U/g)” value (DSS-induced colitis; [2])?
Its value is 0.9 ± 0.2^A U/g.

And the “DAI (disease activity index)” value (DSS-induced colitis; [3])?
The value was 6.5 ± 0.6.

What about the “HS (histological score)” value (DSS-induced colitis; [3]) of the same compound?
The value was 9.8 ± 0.3.

What about the “MPO (U/g)” value (DSS-induced colitis; [3]) of the same compound?
The value was 1.3 ± 0.1 U/g.

Which “disease activity and histological scores (in words)” value (DSS-induced colitis; DSS-treated SCID mice, recombinant mIFN-β) does the source give for “IFN-β: recombinant murine IFN-β from Chemicon International” here?
Its value is “decreased the disease activity and the histological scores”.

What about the “DAI (disease activity index)” value (DSS-induced colitis; [4]) of the same compound?
Its value is 4.6 ± 0.9^A.

What about the “HS (histological score)” value (DSS-induced colitis; [4]) of the same compound?
The value was 6.8 ± 1.2^A.

What about the “MPO (U/g)” value (DSS-induced colitis; [4]) of the same compound?
Its value is 1.2 ± 0.1 U/g.
